From patent US20250206730A1 (AUTOTELIC BIO INC., priority 2022, published 2025)
pIC50: −log10 of the molar value.

Key:
[1] = system: TGF-β signaling; assay: Assay for evaluating cellular inhibition of TGF-β signaling, HEK293 (SBE reporter) luciferase reporter; type: cell-based; settings: Homo sapiens; HEK293 (SBE reporter) stable cells, 0.5% FBS, 2 h pre-treatment, TGF-β1 2 ng/mL 24 h; read-out: IC50 HEK 293 Cell
Description: [Example 2] Assay for Evaluating Cellular Inhibition of TGF-β Signaling
4T1 (SBE-luc2P) transient pool that have SBE-luc2P (hygro) expression plasmid or HEK293 (SBE reporter) stable cells (BPS bioscience) were seeded at 6×10^3 cells/well or 2.5×10^4 cells/well in 96-well plate, respectively. 4T1 (SBE-luc2P) transient pool were pre-treated with novel compound synthesized in Example 1 above in 0.2% FBS at approximately 60% confluence at 37° C. in 5% CO2. Also, HEK293 (SBE reporter) stable cells were pre-treated with each test compounds of formula in 0.5% FBS at approximately 80% confluence at 37° C. in 5% CO2. After 2 hours, cells were treated with TGF-β1 (2 ng/mL) for 24 h at 37° C. in 5% CO2. Cell lysates were prepared using Luciferase Assay (Promega) according to the manufacturer's instruction, and luminescence was measured by a plate reader, Biotek Synergy H1 (Vermont, USA).

[2] = molecular target: T1, ALK5 kinase (Homo sapiens, UniProt P36897); assay: LanthaScreen Eu Kinase Binding Assay; settings: Kinase Tracer 178, Eu-anti-GST Antibody, read-out: IC50 Enzyme
T1 sequence (P36897 34-503): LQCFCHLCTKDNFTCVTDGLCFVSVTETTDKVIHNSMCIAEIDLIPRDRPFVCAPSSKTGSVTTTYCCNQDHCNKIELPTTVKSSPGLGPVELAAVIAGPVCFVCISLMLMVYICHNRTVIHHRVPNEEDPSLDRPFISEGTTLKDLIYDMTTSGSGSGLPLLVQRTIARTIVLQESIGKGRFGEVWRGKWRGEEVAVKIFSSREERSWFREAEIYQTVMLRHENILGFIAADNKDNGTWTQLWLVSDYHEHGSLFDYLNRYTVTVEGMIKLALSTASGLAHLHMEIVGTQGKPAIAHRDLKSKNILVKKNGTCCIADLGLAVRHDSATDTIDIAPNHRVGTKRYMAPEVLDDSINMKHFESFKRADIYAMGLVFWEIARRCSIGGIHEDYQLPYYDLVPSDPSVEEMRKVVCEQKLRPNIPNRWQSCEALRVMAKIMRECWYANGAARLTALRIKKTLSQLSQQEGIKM
How it was run: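 Tracer-displacement TR-FRET: after 30 min RT compound–kinase preincubation, Eu-labelled anti-GST antibody plus Kinase Tracer 178 were incubated 60 min at RT. Binding was read as a lower 665 nm/615 nm emission ratio (excitation 340 nm).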

[3] = system: TGF-β signaling; assay: Assay for evaluating cellular inhibition of TGF-β signaling, 4T1 (SBE-luc2P) luciferase reporter; type: cell-based; settings: Mus musculus, 4T1, 4T1 (SBE-luc2P) transient pool, 0.2% FBS, 2 h pre-treatment, TGF-β1 2 ng/mL 24 h; read-out: IC50 4T1 Cell
How it was run: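 Luminescence from SMAD-binding-element luciferase was measured after 24 h of 2 ng/mL TGF-β1 at 37 °C, following 2 h compound pre-treatment. HEK293 stable reporter cells were used at 2.5×10^4/well in 0.5% FBS (~80% confluent); the 4T1 SBE-luc2P transient pool at 6×10^3/well in 0.2% FBS (~60% confluent).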

pIC50 [1] | pIC50 [2] | pIC50 [3] | Structure (SMILES)
> 7.00 | – | – | CCc1nc(-c2ccccc2)c(Oc2ccnc(Nc3ccc(C(=O)NCCN4CCCC4)cn3)c2)s1 [A-199, 6-((4-((2-Ethyl-4-phenylthiazol-5-yl)oxy)pyridin-2-yl)amino)-N-(2-(pyrrolidin-1-yl)ethyl)nicotinamide]
> 7.00 | – | – | CCc1nc(-c2ccccc2)c(Oc2ccnc(Nc3ccc(N4CCC(NC)C4)cc3)c2)s1 (centres unmarked) [A-215, 4-((2-Ethyl-4-phenylthiazol-5-yl)oxy)-N-(4-(3-(methylamino)pyrrolidin-1-yl)phenyl)pyridin-2-amine]
< 7.00 | – | – | CCc1nc(-c2ccccc2)c(Oc2ccnc(Nc3cc(C(N)=O)ccn3)n2)s1 [A-242, 2-((4-((2-Ethyl-4-phenylthiazol-5-yl)oxy)pyrimidin-2-yl)amino)isonicotinamide]
> 7.00 | – | – | CCc1nc(-c2ccccc2)c(Oc2ccnc(Nc3ccc(C(=O)O)cc3)n2)s1 [A-246, 4-((4-((2-Ethyl-4-phenylthiazol-5-yl)oxy)pyrimidin-2-yl)amino)benzoic acid]
> 7.00 | – | – | CCc1nc(-c2ccccc2)c(Oc2ccnc(Nc3ccc(NCCN4CCCC4)cn3)c2)s1 [A-210, N^2-(4-((2-Ethyl-4-phenylthiazol-5-yl)oxy)pyridin-2-yl)-N^5-(2-(pyrrolidin-1-yl)ethyl)pyridine-2,5-diamine]
> 7.00 | – | – | CCc1nc(-c2ccccc2)c(Oc2ccnc(Nc3ccc(NCCN4CCCC4)cc3)c2)s1 [A-208, N^1-(4-((2-Ethyl-4-phenylthiazol-5-yl)oxy)pyridin-2-yl)-N^4-(2-(pyrrolidin-1-yl)ethyl)benzene-1,4-diamine]
> 7.00 | – | – | CCc1nc(-c2ccccc2)c(Oc2ccnc(Nc3ccc(NCCN4CCN(C(C)C)CC4)cc3)c2)s1 [A-205, N^1-(4-((2-Ethyl-4-phenylthiazol-5-yl)oxy)pyridin-2-yl)-N^4-(2-(4-isopropylpiperazin-1-yl)ethyl)benzene-1,4-diamine]
– | > 7.00 | > 7.00 | CC(C)c1nc(-c2ccccc2)c(Oc2ccnc(Nc3ccc(C(N)=O)cn3)c2)s1 [A-227, 6-((4-((2-Isopropyl-4-phenylthiazol-5-yl)oxy)pyridin-2-yl)amino)nicotinamide]
– | > 7.00 | > 7.00 | O=C(O)c1ccc(Nc2cc(Oc3sc(C4CC4)nc3-c3ccccc3)ccn2)nc1 [A-132, 6-((4-((2-Cyclopropyl-4-phenylthiazol-5-yl)oxy)pyridin-2-yl)amino)nicotinic acid]
– | > 7.00 | < 7.00 | Cc1nc(-c2ccccc2)c(Oc2ccnc(Nc3ccc(C(N)=O)nc3)c2)s1 [A-91, 5-((4-((2-Methyl-4-phenylthiazol-5-yl)oxy)pyridin-2-yl)amino)picolinamide]
– | > 7.00 | > 7.00 | Cc1nc(-c2ccccc2)c(Oc2ccnc(Nc3cccc(C(C)(C)O)c3)c2)s1 [A-61, 2-(3-((4-((2-Methyl-4-phenylthiazol-5-yl)oxy)pyridin-2-yl)amino)phenyl)propan-2-ol]
– | > 7.00 | > 7.00 | CN(C)c1nc(-c2ccccc2)c(Oc2ccnc(Nc3ccc(C(N)=O)cn3)c2)s1 [A-163, 6-((4-((2-(Dimethylamino)-4-phenylthiazol-5-yl)oxy)pyridin-2-yl)amino)nicotinamide]
– | > 7.00 | > 7.00 | CCS(=O)(=O)Nc1cccc(Nc2cc(Oc3sc(C4CC4)nc3-c3ccccc3)ccn2)c1 [A-122, N-(3-((4-((2-Cyclopropyl-4-phenylthiazol-5-yl)oxy)pyridin-2-yl)amino)phenyl)ethanesulfonamide]
– | > 7.00 | < 7.00 | CC(C)(O)c1cccc(Nc2cc(Oc3sc(N)nc3-c3ccccc3)ccn2)c1 [A-41, 2-(3-((4-((2-Amino-4-phenylthiazol-5-yl)oxy)pyridin-2-yl)amino)phenyl)propan-2-ol]
– | > 7.00 | > 7.00 | CNC(=O)c1cccc(Nc2cc(Oc3sc(C)nc3-c3ccccc3)ccn2)c1 [A-69, N-Methyl-3-((4-((2-methyl-4-phenylthiazol-5-yl)oxy)pyridin-2-yl)amino)benzamide]
– | > 7.00 | < 7.00 | CC(C)(O)c1cccc(Nc2cc(Oc3sc(C4CC4)nc3-c3ccccc3)ccn2)c1 [A-115, 2-(3-((4-((2-Cyclopropyl-4-phenylthiazol-5-yl)oxy)pyridin-2-yl)amino)phenyl)propan-2-ol]
– | > 7.00 | < 7.00 | CCc1nc(-c2ccccc2)c(Oc2ccnc(Nc3ccc(C(C)(C)O)nc3)c2)s1 [A-187, 2-(5-((4-((2-Ethyl-4-phenylthiazol-5-yl)oxy)pyridin-2-yl)amino)pyridin-2-yl)propan-2-ol]
– | > 7.00 | > 7.00 | Cc1cccc(-c2nc(C)sc2Oc2ccnc(Nc3cccc(CC#N)c3)c2)n1 [A-304]
– | > 7.00 | > 7.00 | NC(=O)c1ccc(Nc2cc(Oc3sc(C4CC4)nc3-c3ccccc3)ccn2)nc1 [A-129, 6-((4-((2-Cyclopropyl-4-phenylthiazol-5-yl)oxy)pyridin-2-yl)amino)nicotinamide]
– | > 7.00 | > 7.00 | Cc1nc(-c2ccccc2)c(Oc2ccnc(Nc3ccc(N4CCNCC4)cc3)c2)s1 [A-104, 4-((2-Methyl-4-phenylthiazol-5-yl)oxy)-N-(4-(piperazin-1-yl)phenyl)pyridin-2-amine]
– | > 7.00 | > 7.00 | Cc1nc(-c2ccccc2)c(Oc2ccnc(Nc3cccc(Cc4nnn[nH]4)c3)c2)s1 [A-112, N-(3-((1H-Tetrazol-5-yl)methyl)phenyl)-4-((2-methyl-4-phenylthiazol-5-yl)oxy)pyridin-2-amine]
– | > 7.00 | > 7.00 | Cc1nc(-c2ccccc2)c(Oc2ccnc(Nc3cccc(S(N)(=O)=O)c3)c2)s1 [A-58, 3-((4-((2-Methyl-4-phenylthiazol-5-yl)oxy)pyridin-2-yl)amino)benzenesulfonamide]
– | > 7.00 | < 7.00 | CNc1nc(-c2ccccc2)c(Oc2ccnc(Nc3cccc(C(N)=O)c3)c2)s1 [A-52, 3-((4-((2-(Methylamino)-4-phenylthiazol-5-yl)oxy)pyridin-2-yl)amino)benzamide]
– | > 7.00 | > 7.00 | Cc1cccc(-c2nc(C(C)C)sc2Oc2ccnc(Nc3cccc(S(N)(=O)=O)c3)c2)n1 [A-287, 3-((4-((2-Isopropyl-4-(6-methylpyridin-2-yl)thiazol-5-yl)oxy)pyridin-2-yl)amino)benzenesulfonamide]
– | < 7.00 | < 7.00 | CN(C)c1nc(-c2ccc3ccccc3c2)c(Oc2ccnc(Nc3cccc(S(N)(=O)=O)c3)c2)s1 [A-235, 3-((4-((2-(Dimethylamino)-4-(naphthalen-2-yl)thiazol-5-yl)oxy)pyridin-2-yl)amino)benzenesulfonamide]
– | > 7.00 | < 7.00 | CC(C)c1nc(-c2ccccc2)c(Oc2ccnc(Nc3cccc(C(N)=O)c3)c2)s1 [A-220, 3-((4-((2-Isopropyl-4-phenylthiazol-5-yl)oxy)pyridin-2-yl)amino)benzamide]
– | > 7.00 | < 7.00 | Cc1nc(-c2ccccc2)c(Oc2ccnc(Nc3ccc(S(N)(=O)=O)cc3)c2)s1 [A-64, 4-((4-((2-Methyl-4-phenylthiazol-5-yl)oxy)pyridin-2-yl)amino)benzenesulfonamide]
– | > 7.00 | > 7.00 | CCc1nc(-c2cccc(C)n2)c(Oc2ccnc(Nc3cc(C(=O)NC)ccn3)c2)s1 [A-268, 2-((4-((2-Ethyl-4-(6-methylpyridin-2-yl)thiazol-5-yl)oxy)pyridin-2-yl)amino)-N-methylisonicotinamide]
– | > 7.00 | > 7.00 | CCc1nc(-c2ccccc2)c(Oc2ccnc(Nc3ccnc(C(C)(C)O)c3)c2)s1 [A-186, 2-(4-((4-((2-Ethyl-4-phenylthiazol-5-yl)oxy)pyridin-2-yl)amino)pyridin-2-yl)propan-2-ol]
– | > 7.00 | < 7.00 | COc1nc(-c2ccccc2)c(Oc2ccnc(Nc3cccc(C(=O)O)c3)c2)s1 [A-144, 3-((4-((2-Methoxy-4-phenylthiazol-5-yl)oxy)pyridin-2-yl)amino)benzoic acid]
